From patent US20210163443A1, “Febrifugine Derivatives” (BRISTOL-MYERS SQUIBB COMPANY, priority 2019, published 2021) come the findings set out here.

Structures can show the parent of a compound that is named as a salt.

This assay addresses T1, human ProRS (prolyl tRNA synthetase moiety of glutamyl prolyl tRNA synthetase, EPRS) (Homo sapiens, UniProt P07814).
T1 construct: The prolyl tRNA synthetase moiety (ProRS) in the cDNA of glutamyl prolyl tRNA synthetase was subcloned; 6xHis (N, cleaved yes); made in house; host or cells: E. coli BL21 (DE3)
T1 sequence (P07814 1007-1512 limits assumed): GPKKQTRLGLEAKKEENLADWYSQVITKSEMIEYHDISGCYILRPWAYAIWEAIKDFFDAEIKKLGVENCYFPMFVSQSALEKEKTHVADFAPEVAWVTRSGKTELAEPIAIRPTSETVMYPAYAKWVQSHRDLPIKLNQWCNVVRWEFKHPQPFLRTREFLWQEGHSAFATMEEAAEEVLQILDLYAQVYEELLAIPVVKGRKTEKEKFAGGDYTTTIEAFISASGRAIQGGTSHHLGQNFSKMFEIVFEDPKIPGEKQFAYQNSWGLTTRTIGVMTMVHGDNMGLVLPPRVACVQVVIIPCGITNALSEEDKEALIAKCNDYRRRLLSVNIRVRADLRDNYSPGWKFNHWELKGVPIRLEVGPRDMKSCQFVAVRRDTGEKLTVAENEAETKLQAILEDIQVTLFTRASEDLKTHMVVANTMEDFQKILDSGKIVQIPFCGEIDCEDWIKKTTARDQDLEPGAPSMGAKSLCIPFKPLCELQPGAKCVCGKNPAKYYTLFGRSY
Kind of assay: Assay for inhibitors of prolyl tRNA synthetase activity (ProRS assay, labeled proline incorporation). In kind it is biochemical. Conditions: human ProRS 20 nM, 10 min at 37° C.; read-out: EPRS IC50. The source says: In order to establish the activities of the compounds highlighted above, we determined extent of inhibition of prolyl tRNA synthetase activity in dose response curves to obtain IC50 values.
The prolyl tRNA synthetase moiety (ProRS) in the cDNA of glutamyl prolyl tRNA synthetase was subcloned, tagged with a single biotin, purified and used in the assay.
Briefly, human ProRS with a 6×N-terminal His tag in pET28N with TVMV BioP was transformed in E. coli BL21 (DE3) cells, selected, overexpressed and purified using a Ni Seph 6 FF XK 16/20 column in the first stage. Ni-NTA eluates were pooled and treated with TVMV protease, and biotinylated using d-Biotin, MgCl2, ATP and the BirA enzyme. This was rerun through a Ni column as before. The eluates were further enriched and purified using membrane ultrafiltration and a SuperDex 200 XK 16/60 column, and peak fractions were confirmed by SDS-PAGE prior to protein amount determination, aliquoting and storage at −80° C. • ProRS assay was performed in 96 well plates in a final reaction volume of 20 μl, using staggered additions of Tris-Cl (pH 7.5, 60 mM), dithiothreitol (2 mM), ATP (5 mM, pH 7.0), MgCl2 6 mM), ProRS (20 nM, with pre-determined active fraction range) and bovine tRNA (20 μg). Controls and compounds, at various concentrations (10 μM to 0.5 nM), were incubated on ice with enzyme mix for 15 min followed by addition of proline (non-labeled and labeled, 3.96 and 1.04 μM (1 μCi) respectively) to initiate the reaction. Reaction was carried out for 10 min at 37° C. and terminated by addition of TCA (10%, 100 μl). Reaction mix was collected on a Whatman GF/B filter using a vacuum filtration manifold. This filter was washed 3 times with 5% TCA followed by 2 washes with ethanol, air dried, and read using a liquid scintillation counter (TopCount NXT) using MicroScint O. IC50 values were calculated and analyzed using ToolSet (4-parameter plot) and depicted herein.

Regarding “3-{(S)-2-hydroxy-3-[(2R,3S)-3-hydroxypiperidin-2-yl]propyl}-8-methyl-6-(1-methyl-1H-pyrazol-3-yl)quinazolin-4(3H)-one hydrochloride [Example 71]”, the 50% inhibitory concentration (IC50) was determined as 4200 nM.
For `Cc1cc(Cl)cc2c(=O)n(CC(=O)C[C@H]3NCCC[C@@H]3O)cnc12` [Example 1, 6-Chloro-3-{3-[(2R,3S)-3-hydroxypiperidin-2-yl]-2-oxopropyl}-8-methylquinazolin-4(3H)-one hydrochloride] the value was 73 nM.
In the case of `Cc1c(Cl)ccc2c(=O)n(CC(=O)C[C@H]3NCCC[C@@H]3O)cnc12` [Example 2, 7-Chloro-3-{3-[(2R,3S)-3-hydroxypiperidin-2-yl]-2-oxopropyl}-8-methylquinazolin-4(3H)-one hydrochloride], the half-maximal inhibitory concentration (IC50) amounted to 15 nM.
Regarding `COc1ccc2c(=O)n(CC(=O)C[C@H]3NCCC[C@@H]3O)cnc2c1C` [Example 4, 3-{3-[(2R,3S)-3-Hydroxypiperidin-2-yl]-2-oxopropyl}-7-methoxy-8-methylquinazolin-4(3H)-one hydrochloride], the IC50 came out at 49 nM.
Regarding `O=C(C[C@H]1NCCC[C@@H]1O)Cn1cnc2cccc(F)c2c1=O` [Example 5, 5-Fluoro-3-{3-[(2R,3S)-3-hydroxypiperidin-2-yl]-2-oxopropyl}quinazolin-4(3H)-one hydrochloride], the half-inhibitory concentration (IC50) came to 8 nM.
As for `CCc1cc(C)c2ncn(CC(=O)C[C@H]3NCCC[C@@H]3O)c(=O)c2c1` [Example 6, 6-Ethyl-3-(3-((2R,3S)-3-hydroxypiperidin-2-yl)-2-oxopropyl)-8-methylquinazolin-4(3H)-one hydrochloride], the half-inhibitory concentration (IC50) came to 3 nM.
For `Cc1cc(OC(F)(F)F)cc2c(=O)n(CC(=O)C[C@H]3NCCC[C@@H]3O)cnc12` [Example 7, 3-{3-[(2R,3S)-3-Hydroxypiperidin-2-yl]-2-oxopropyl}-8-methyl-6-(trifluoromethoxy)quinazolin-4(3H)-one hydrochloride], the IC50 came out at 9 nM.
On to `Cc1cc(S(C)(=O)=O)cc2c(=O)n(CC(=O)C[C@H]3NCCC[C@@H]3O)cnc12` [Example 8, 3-{3-[(2R,3S)-3-Hydroxypiperidin-2-yl]-2-oxopropyl}-8-methyl-6-methylsulfonyl)quinazolin-4(3H)-one hydrochloride], for which the IC50 came to 9 nM.
`Cc1cc(C(F)(F)F)cc2c(=O)n(CC(=O)C[C@H]3NCCC[C@@H]3O)cnc12` [Example 9, 3-{3-[(2R,3S)-3-Hydroxypiperidin-2-yl]-2-oxopropyl}-8-methyl-6-(trifluoromethyl)quinazolin-4(3H)-one hydrochloride]: the half-maximal inhibitory concentration (IC50) was determined as 7 nM.
In the case of `Cc1cc(C(C)C)cc2c(=O)n(CC(=O)C[C@H]3NCCC[C@@H]3O)cnc12` [Example 10, 3-{3-[(2R,3S)-3-Hydroxypiperidin-2-yl]-2-oxopropyl}-6-isopropyl-8-methylquinazolin-4(3H)-one hydrochloride], the IC50 was 6 nM.
`Cc1cc(C2CC2)cc2c(=O)n(CC(=O)C[C@H]3NCCC[C@@H]3O)cnc12` [Example 11, 6-Cyclopropyl-3-{3-[(2R,3S)-3-hydroxypiperidin-2-yl]-2-oxopropyl}-8-methylquinazolin-4(3H)-one hydrochloride]: the IC50 was 6 nM.
Consider `Cc1cc(C#N)cc2c(=O)n(CC(=O)C[C@H]3NCCC[C@@H]3O)cnc12` [Example 12, 3-{3-[(2R,3S)-3-Hydroxypiperidin-2-yl]-2-oxopropyl}-8-methyl-4-oxo-3,4-dihydroquinazoline-6-carbonitrile hydrochloride], for which the half-maximal inhibitory concentration (IC50) came out at 17 nM.
For `CCc1cc(Br)cc2c(=O)n(CC(=O)C[C@H]3NCCC[C@@H]3O)cnc12` [Example 13, 6-Bromo-8-ethyl-3-{3-[(2R,3S)-3-hydroxypiperidin-2-yl]-2-oxopropyl}quinazolin-4(3H)-one hydrochloride] the value was 6 nM; for `CCc1cc(F)cc2c(=O)n(CC(=O)C[C@H]3NCCC[C@@H]3O)cnc12` [Example 14, 8-Ethyl-6-fluoro-3-(3-((2R,3S)-3-hydroxypiperidin-2-yl)-2-oxopropyl)quinazolin-4(3H)-one hydrochloride], 38 nM.
Then `O=C(C[C@H]1NCCC[C@@H]1O)Cn1cnc2cccc(-c3cccc(F)c3)c2c1=O` [Example 15, 5-(3-Fluorophenyl)-3-{3-[(2R,3S)-3-hydroxypiperidin-2-yl]-2-oxopropyl}quinazolin-4(3H)-one hydrochloride], with 6 nM; and `O=C(C[C@H]1NCCC[C@@H]1O)Cn1cnc2ccc(-c3cccc(F)c3)cc2c1=O` [Example 16, 6-(3-Fluorophenyl)-3-{3-[(2R,3S)-3-hydroxypiperidin-2-yl]-2-oxopropyl}quinazolin-4(3H)-one hydrochloride], with 10 nM.
Regarding `O=C(C[C@H]1NCCC[C@@H]1O)Cn1cnc2ccc(-c3cccc(Cl)c3)cc2c1=O` [Example 17, 6-(3-Chlorophenyl)-3-{3-[(2R,3S)-3-hydroxypiperidin-2-yl]-2-oxopropyl}quinazolin-4(3H)-one hydrochloride], the IC50 was found to be 28 nM.
For `O=C(C[C@H]1NCCC[C@@H]1O)Cn1cnc2ccc(-c3cccc(C(F)(F)F)c3)cc2c1=O` [Example 18, 3-{3-[(2R,3S)-3-Hydroxypiperidin-2-yl]-2-oxopropyl}-6-[3-(trifluoromethyl)phenyl]quinazolin-4(3H)-one hydrochloride] the value was 40 nM; for `Cc1cc(-c2cccc(F)c2)cc2c(=O)n(CC(=O)C[C@H]3NCCC[C@@H]3O)cnc12` [Example 19, 6-(3-Fluorophenyl)-3-{3-[(2R,3S)-3-hydroxypiperidin-2-yl]-2-oxopropyl}-8-methylquinazolin-4(3H)-one hydrochloride], 9 nM; for `Cc1cc(-c2cccc(C(F)(F)F)c2)cc2c(=O)n(CC(=O)C[C@H]3NCCC[C@@H]3O)cnc12` [Example 20, 3-{3-[(2R,3S)-3-Hydroxypiperidin-2-yl]-2-oxopropyl}-8-methyl-6-[3-(trifluoromethyl)phenyl]quinazolin-4(3H)-one hydrochloride], 28 nM.
For `Cc1cc(-c2cccnc2)cc2c(=O)n(CC(=O)C[C@H]3NCCC[C@@H]3O)cnc12` [Example 21, 3-{3-[(2R,3S)-3-Hydroxypiperidin-2-yl]-2-oxopropyl}-8-methyl-6-(pyridin-3-yl)quinazolin-4(3H)-one dihydrochloride] the value was 8 nM.
For `Cc1cc(-c2ccc(F)c(F)c2)cc2c(=O)n(CC(=O)C[C@H]3NCCC[C@@H]3O)cnc12` [Example 22, 6-(3,4-Difluorophenyl)-3-{3-[(2R,3S)-3-hydroxypiperidin-2-yl]-2-oxopropyl}-8-methylquinazolin-4(3H)-one hydrochloride] the value was 15 nM.
In the case of `Cc1cc(C2CCOCC2)cc2c(=O)n(CC(=O)C[C@H]3NCCC[C@@H]3O)cnc12` [Example 23, 3-{3-[(2R,3S)-3-Hydroxypiperidin-2-yl]-2-oxopropyl}-8-methyl-6-(tetrahydro-2H-pyran-4-yl)quinazolin-4(3H)-one hydrochloride], the IC50 was found to be 12 nM.
Regarding `Cc1cc(N2CCCC2)cc2c(=O)n(CC(=O)C[C@H]3NCCC[C@@H]3O)cnc12` [Example 24, 3-{3-[(2R,3S)-3-Hydroxypiperidin-2-yl]-2-oxopropyl}-8-methyl-6-(pyrrolidin-1-yl)quinazolin-4(3H)-one dihydrochloride], the IC50 was 14 nM.
For the compound `O=C(C[C@H]1NCCC[C@@H]1O)Cn1cnc2cccc(C(F)(F)F)c2c1=O` [Example 25, 3-{3-[(2R,3S)-3-Hydroxypiperidin-2-yl]-2-oxopropyl}-5-(trifluoromethyl)quinazolin-4(3H)-one hydrochloride], the 50% inhibitory concentration (IC50) amounted to 10 nM.
For `O=C(C[C@H]1NCCC[C@@H]1O)Cn1cnc2cccc(-c3cccc(C(F)(F)F)c3)c2c1=O` [Example 26, 3-{3-[(2R,3S)-3-Hydroxypiperidin-2-yl]-2-oxopropyl}-5-[3-(trifluoromethyl)phenyl]quinazolin-4(3H)-one hydrochloride], the IC50 turned out to be 13 nM.
